Results from patent US7612055B2, “Macrocyclic lactams and pharmaceutical use thereof” (Novartis AG, priority 2003, dated 2009).

In the case of `CCCCNC(=O)C(C)CC(O)C1C[C@H](C)CCCCCCNc2cc(cc(OC)n2)C(=O)N1` (stereo partly drawn) [Example 11, N-Butyl-4-hydroxy-4-((9R)-16-methoxy-9-methyl-13-oxo-2,12,17-triaza-bicyclo[12.3.1]octadeca-1(17),14(18),15-trien-11-yl)-2-methyl-butyramide], the melting point is reported as 178 to 182 °C.
